In BindingDB's records for doi:10.1038/nchembio.211 (Praecis Pharmaceuticals, 2009):
Substitutions are numbered along the chain they refer to. pEC50, pIC50: −log10 of the molar value.

What was measured:
Details in all cases: pH 9.5; 16 °C
Aurora kinase A [1] = target: T1, Aurora kinase A (Homo sapiens, UniProt O14965); assay: Aurora A Inhibition Assay
T1 sequence (O14965 whole entry): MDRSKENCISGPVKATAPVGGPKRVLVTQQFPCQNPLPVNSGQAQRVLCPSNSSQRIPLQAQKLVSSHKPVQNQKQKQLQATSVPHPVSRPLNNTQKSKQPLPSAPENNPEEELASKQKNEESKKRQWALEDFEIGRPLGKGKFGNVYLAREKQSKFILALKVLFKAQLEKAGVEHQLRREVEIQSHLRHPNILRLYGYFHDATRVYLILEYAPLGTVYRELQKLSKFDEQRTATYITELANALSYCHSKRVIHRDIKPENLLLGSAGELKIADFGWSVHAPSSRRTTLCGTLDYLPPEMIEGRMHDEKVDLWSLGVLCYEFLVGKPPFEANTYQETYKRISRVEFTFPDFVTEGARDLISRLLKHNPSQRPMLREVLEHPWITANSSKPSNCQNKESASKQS
From the text: (§1) Selection of DNA-encoded libraries (DELs) which are covalent attachment of encoding double stranded DNA to small-molecule created using a combination of enzymatic and chemical synthesis in a split-and-pool format against Aurora A kinase

[2] = target: Mitogen-activated protein kinase 14 (Homo sapiens, UniProt Q16539); assay: MAPK p38 Inhibition Assay
Mitogen-activated protein kinase 14, sequence (Q16539 whole entry): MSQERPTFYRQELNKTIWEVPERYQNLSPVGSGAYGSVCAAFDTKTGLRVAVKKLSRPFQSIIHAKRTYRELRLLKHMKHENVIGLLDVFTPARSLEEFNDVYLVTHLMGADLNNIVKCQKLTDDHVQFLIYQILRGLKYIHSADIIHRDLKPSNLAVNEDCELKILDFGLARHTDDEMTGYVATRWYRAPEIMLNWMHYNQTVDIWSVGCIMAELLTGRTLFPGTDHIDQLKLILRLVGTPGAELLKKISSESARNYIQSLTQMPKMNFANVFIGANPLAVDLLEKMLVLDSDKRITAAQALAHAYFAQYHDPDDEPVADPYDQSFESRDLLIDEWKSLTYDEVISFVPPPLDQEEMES
From the text: Selection of DNA-encoded libraries (DELs), which are covalent attachment of encoding double stranded DNA to small-molecule created using a combination of enzymatic and chemical synthesis in a split-and-pool format against p38 mitogen-activated protein kinase

Aurora kinase A [3] = target: T2, Aurora kinase A (Homo sapiens, UniProt O14965); assay: Aurora A Inhibition Assay; remark: listed apart in the source
T2 sequence (O14965 whole entry): T1 sequence (O14965 whole entry) with I57V
From the text: as §1

Row | pIC50 (Aurora kinase A [1]) | SMILES | also measured
1 | 5.20 | COc1ccccc1CCNc1nc(NC(Cc2c[nH]c3ncccc23)C(N)=O)nc(N(C)[C@@H](C)c2ccccc2)n1 (stereo partly drawn) [2-(4-(2-Methoxyphenethylamino)-6-(methyl((S)-1-phenylethyl)amino)-1,3,5-triazin-2-ylamino)-3-(1H-pyrrolo[2,3-b]pyridin-3-yl)propanamide] | –
2 | 5.43 | COc1ccccc1CCNc1nc(Nc2ccc3ncccc3c2)nc(NC(Cc2c[nH]c3ncccc23)C(N)=O)n1 (stereo unspecified) [2-(4-(2-Methoxyphenethylamino)-6-(quinolin-6-ylamino)-1,3,5-triazin-2-ylamino)-3-(1H-pyrrolo[2,3-b]pyridin-3-yl)propanamide] | –
3 | 5.42 | CCCCN(C)c1nc(NCCc2ccccc2OC)nc(NC(Cc2c[nH]c3ncccc23)C(N)=O)n1 (stereo unspecified) [2-(4-(Butyl(methyl)amino)-6-(2-methoxyphenethylamino)-1,3,5-triazin-2-ylamino)-3-(1H-pyrrolo[2,3-b]pyridin-3-yl)propanamide] | –
4 | – | CNC(=O)[C@H](Cc1ccc2c(c1)COC(C)(C)O2)Nc1nc(NCC(C)C)nc(-n2cnc3cc(C(=O)N4CCCc5ccccc54)ccc32)n1 [(S)-3-(2,2-Dimethyl-4H-benzo[d][1,3]dioxin-6-yl)-2-(4-(isobutylamino)-6-(5-(1,2,3,4-tetrahydroquinoline-1-carbonyl)-1H-benzo[d]imidazol-1-yl)-1,3,5-triazin-2-ylamino)-N-methylpropanamide] | pEC50 [2]: 6.60
5 | – | CNc1nc(NCCc2ccccc2OC)nc(Nc2ccc3ncccc3c2)n1 [DEL-A, 12] | pIC50 (Aurora kinase A [3]): 5.29
6 | 5.92 | CCCCN(C)c1nc(NCCc2ccccc2OC)nc(NCCc2c[nH]c3ncccc23)n1 [N2-(2-(1H-Pyrrolo[2,3-b]pyridin-3-yl)ethyl)-N4-butyl-N6-(2-methoxyphenethyl)-N4-methyl-1,3,5-triazine-2,4,6-triamine] | –
